# Reference: PubChem BioAssay AID2060614 (Molecular Pharmacology Branch, DTP, NCI, 2025)
# “And” between values parts separate entries of the source, which are not always exact repeats. Identical values can stand only once.
# System: 598228-144-R-J1-PDC complex spheroids, viability
# Assay: Anticancer human tumor 598228-144-R-J1-PDC patient-derived serous endometrial adenocarcinoma cell line growth inhibition [CLK]
# Conditions: for viability, T/C: stronger effect = lower value
# How it was run: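 Patient-derived tumor cells grown as complex spheroids with HUVEC endothelial cells and mesenchymal stem cells, treated with drug combinations. Concentrations descend in half-log steps from near clinical Cmax, or from 10 microM if Cmax unknown.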
# [1] = curve of first compound, second compound 0.0316 µM
# [2] = curve of first compound, second compound 0.1 µM
# [3] = curve of first compound, second compound 0.316 µM
# [4] = curve of first compound, second compound 1 µM
# [5] = curve of first compound, second compound 3.16 µM
# [6] = curve of first compound, second compound 10 µM
# [7] = second compound 0.0316 µM, first compound 0.0316 µM
# [8] = second compound 0.0316 µM, first compound 0.1 µM
# [9] = second compound 0.0316 µM, first compound 0.316 µM
# [10] = second compound 0.0316 µM, first compound 1 µM
# [11] = second compound 0.1 µM, first compound 0.0316 µM
# [12] = second compound 0.1 µM, first compound 0.1 µM
# [13] = second compound 0.1 µM, first compound 0.316 µM
# [14] = second compound 0.1 µM, first compound 1 µM
# [15] = second compound 0.316 µM, first compound 0.0316 µM
# [16] = second compound 0.316 µM, first compound 0.1 µM
# [17] = second compound 0.316 µM, first compound 0.316 µM
# [18] = second compound 0.316 µM, first compound 1 µM
# [19] = second compound 1 µM, first compound 0.0316 µM
# [20] = second compound 1 µM, first compound 0.1 µM
# [21] = second compound 1 µM, first compound 0.316 µM
# [22] = second compound 1 µM, first compound 1 µM
# [23] = second compound 3.16 µM, first compound 0.0316 µM
# [24] = second compound 3.16 µM, first compound 0.1 µM
# [25] = second compound 3.16 µM, first compound 0.316 µM
# [26] = second compound 3.16 µM, first compound 1 µM
# [27] = second compound 10 µM, first compound 0.0316 µM
# [28] = second compound 10 µM, first compound 0.1 µM
# [29] = second compound 10 µM, first compound 0.316 µM
# [30] = second compound 10 µM, first compound 1 µM
# [31] = second compound 0.0316 µM, first compound 3.16 µM
# [32] = second compound 0.0316 µM, first compound 10 µM
# [33] = second compound 0.1 µM, first compound 3.16 µM
# [34] = second compound 0.1 µM, first compound 10 µM
# [35] = second compound 0.316 µM, first compound 3.16 µM
# [36] = second compound 0.316 µM, first compound 10 µM
# [37] = second compound 1 µM, first compound 3.16 µM
# [38] = second compound 1 µM, first compound 10 µM
# [39] = second compound 3.16 µM, first compound 3.16 µM
# [40] = second compound 3.16 µM, first compound 10 µM
# [41] = second compound 10 µM, first compound 3.16 µM
# [42] = second compound 10 µM, first compound 10 µM
# 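Also: spheroids exposed to compounds for seven days before readout.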
# 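For viability, T/C in this document: 100% = DMSO vehicle control wells.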
smiles,measurement,setting,value
CCc1c2c(nc3ccc(O)cc13)-c1cc3c(c(=O)n1C2)COC(=O)[C@]3(O)CC + CNC(=O)c1ccc(Nc2nc(OC3CCCC3)c3c(-c4ccc5nc(C)oc5c4)c[nH]c3n2)c(OC)c1,IC50,[1],0.0515 µM
same,IC50,[2],0.0564 µM
same,IC50,[3],0.1 µM
same,IC50,[4],0.0615 µM
same,IC50,[5],0.0542 µM
same,IC50,[6],0.0332 µM
same,"viability, T/C","second compound 0.0316 µM, first compound 0.00316 µM",91%
same,"viability, T/C","second compound 0.0316 µM, first compound 0.01 µM",77.3%
same,"viability, T/C",[7],65.9%
same,"viability, T/C",[8],30.8%
same,"viability, T/C",[9],14.4%
same,"viability, T/C",[10],6.44%
same,"viability, T/C","second compound 0.1 µM, first compound 0.00316 µM",106%
same,"viability, T/C","second compound 0.1 µM, first compound 0.01 µM",84.5%
same,"viability, T/C",[11],65.2%
same,"viability, T/C",[12],38.5%
same,"viability, T/C",[13],16.2%
same,"viability, T/C",[14],14.9%
same,"viability, T/C","second compound 0.316 µM, first compound 0.00316 µM",124%
same,"viability, T/C","second compound 0.316 µM, first compound 0.01 µM",111%
same,"viability, T/C",[15],97%
same,"viability, T/C",[16],48.3%
same,"viability, T/C",[17],21.6%
same,"viability, T/C",[18],10.5%
same,"viability, T/C","second compound 1 µM, first compound 0.00316 µM",117%
same,"viability, T/C","second compound 1 µM, first compound 0.01 µM",95%
same,"viability, T/C",[19],73.8%
same,"viability, T/C",[20],33.2%
same,"viability, T/C",[21],16.3%
same,"viability, T/C",[22],10.8%
same,"viability, T/C","second compound 3.16 µM, first compound 0.00316 µM",108%
same,"viability, T/C","second compound 3.16 µM, first compound 0.01 µM",95.9%
same,"viability, T/C",[23],63.9%
same,"viability, T/C",[24],32.9%
same,"viability, T/C",[25],17.3%
same,"viability, T/C",[26],8.19%
same,"viability, T/C","second compound 10 µM, first compound 0.00316 µM",110%
same,"viability, T/C","second compound 10 µM, first compound 0.01 µM",85.9%
same,"viability, T/C",[27],49.3%
same,"viability, T/C",[28],27.5%
same,"viability, T/C",[29],13.8%
same,"viability, T/C",[30],9.24%
C=CC(=O)N1CCN(c2nc(=O)n(-c3c(C)ccnc3C(C)C)c3nc(-c4c(O)cccc4F)c(F)cc23)C(C)C1 (stereo not drawn) + CNC(=O)c1ccc(Nc2nc(OC3CCCC3)c3c(-c4ccc5nc(C)oc5c4)c[nH]c3n2)c(OC)c1,IC50,[1],> 10 µM
same,IC50,[2],> 10 µM
same,IC50,[3],> 10 µM
same,IC50,[4],> 10 µM
same,IC50,[5],> 10 µM
same,IC50,[6],> 10 µM
same,"viability, T/C",[7],97.9%
same,"viability, T/C",[8],110%
same,"viability, T/C",[9],101%
same,"viability, T/C",[10],123%
same,"viability, T/C",[31],135%
same,"viability, T/C",[32],111%
same,"viability, T/C",[11],100%
same,"viability, T/C",[12],111%
same,"viability, T/C",[13],117%
same,"viability, T/C",[14],114%
same,"viability, T/C",[33],127%
same,"viability, T/C",[34],118%
same,"viability, T/C",[15],120%
same,"viability, T/C",[16],100%
same,"viability, T/C",[17],110%
same,"viability, T/C",[18],127%
same,"viability, T/C",[35],120%
same,"viability, T/C",[36],111%
same,"viability, T/C",[19],102%
same,"viability, T/C",[20],96.7%
same,"viability, T/C",[21],109%
same,"viability, T/C",[22],137%
same,"viability, T/C",[37],117%
same,"viability, T/C",[38],99.3%
same,"viability, T/C",[23],99.8%
same,"viability, T/C",[24],86.1%
same,"viability, T/C",[25],97.5%
same,"viability, T/C",[26],109%
same,"viability, T/C",[39],116%
same,"viability, T/C",[40],85.3%
same,"viability, T/C",[27],87.6%
same,"viability, T/C",[28],88.7%
same,"viability, T/C",[29],96.4%
same,"viability, T/C",[30],104%
same,"viability, T/C",[41],101%
same,"viability, T/C",[42],77.3%
CC(C)CC(NC(=O)C(Cc1ccccc1)NC(=O)c1cnccn1)B(O)O (stereo not drawn),"viability, T/C",compound 0.000949 µM,96.3% and 107%
same,"viability, T/C",compound 0.003 µM,60.7% and 68.6%
same,"viability, T/C",compound 0.00949 µM,1.72% and 2.43%
same,"viability, T/C",compound 0.03 µM,2.65% and 0.78%
same,"viability, T/C",compound 0.0949 µM,0.47% and 0.54%
same,"viability, T/C",compound 0.3 µM,1.72% and 0.37%
same,IC50,curve of compound,0.0037 µM and 0.00415 µM
CNC(=O)c1ccc(Nc2nc(OC3CCCC3)c3c(-c4ccc5nc(C)oc5c4)c[nH]c3n2)c(OC)c1,"viability, T/C",compound 0.0316 µM,89.3% [middle of 4 runs]
same,"viability, T/C",compound 1 µM,101% [middle of 12 runs]
same,"viability, T/C",compound 3.16 µM,94.7% [middle of 12 runs]
same,"viability, T/C",compound 10 µM,101% [middle of 12 runs]
same,IC50,"compound alone, run of 09/19/2023",> 10 µM
COC1C=CCC(C)C(C)S(=O)(=O)NC(=O)c2ccc3c(c2)N(CC2CCC21)CC1(CCCc2cc(Cl)ccc21)CO3 (stereo not drawn) + CNC(=O)c1ccc(Nc2nc(OC3CCCC3)c3c(-c4ccc5nc(C)oc5c4)c[nH]c3n2)c(OC)c1,IC50,[1],3.22 µM
same,IC50,[2],2.59 µM
same,IC50,[3],1.13 µM
same,IC50,[4],2.72 µM
same,IC50,[5],2.01 µM
same,IC50,[6],2.81 µM
same,"viability, T/C",[7],111%
same,"viability, T/C",[8],108%
same,"viability, T/C",[9],81.7%
same,"viability, T/C",[10],69.3%
same,"viability, T/C",[31],54.9%
same,"viability, T/C",[32],25.3%
same,"viability, T/C",[11],105%
same,"viability, T/C",[12],96.9%
same,"viability, T/C",[13],61.7%
same,"viability, T/C",[14],70.6%
same,"viability, T/C",[33],59.6%
same,"viability, T/C",[34],22.9%
same,"viability, T/C",[15],102%
same,"viability, T/C",[16],91.1%
same,"viability, T/C",[17],60.5%
same,"viability, T/C",[18],53.9%
same,"viability, T/C",[35],42.5%
same,"viability, T/C",[36],31.5%
same,"viability, T/C",[19],99%
same,"viability, T/C",[20],82.8%
same,"viability, T/C",[21],65.9%
same,"viability, T/C",[22],57.8%
same,"viability, T/C",[37],55.5%
same,"viability, T/C",[38],37.2%
same,"viability, T/C",[23],92.4%
same,"viability, T/C",[24],78.8%
same,"viability, T/C",[25],67.3%
same,"viability, T/C",[26],54.9%
same,"viability, T/C",[39],55.3%
same,"viability, T/C",[40],25.1%
same,"viability, T/C",[27],86.5%
same,"viability, T/C",[28],83.8%
same,"viability, T/C",[29],67.2%
same,"viability, T/C",[30],51.9%
same,"viability, T/C",[41],58.3%
same,"viability, T/C",[42],35.4%
